“And” between values parts separate entries of the source, which are not always exact repeats. Identical values can stand only once. Counter-ions that a name gives are not always drawn. Like-named read-outs stand apart in the source and are kept apart here.
How the values were obtained:
[1] = oil: methylene chloride + methanol
[2] = for release from pure thermo-responsive hydrogels: previous tests
Experimental: Drug release was carried out in PBS at 37° C. […] Drug release samples were taken at predetermined time intervals and tested for anti-proliferative activity with fibroblast MTS assay as described previously. Briefly, 3T3 fibroblast cells were seeded in 96-well plates as 5000 cells/well. After cells were grown to semiconfluence, growth was arrested by washing plates with PBS and then adding low serum medium with DMEM, 0.5% (v/v) FBS and 1% (v/v) penicillin/streptomycin mixture. Growth arrest was maintained for 24 hours. The cell cycle synchronized cells were then re-stimulated to enter G1 phase by changing back to growth medium. […] PBS was added to growth medium as control group.
To quantify the size distribution of nanospheres, the suspension was sampled and serially filtered through 0.45 μm, 0.22 μm, and 0.1 μm filters. The drug concentration after each filtration was quantified and calculated within each nanosphere size distribution. Nanospheres with size >100 nm in diameter were harvested by ultrafiltration and centrifugation. The harvested nanospheres were washed twice with DI water to remove excess PVA. The resultant nanosphere suspension was immersed in fresh PBS at 37° C. to initiate release. […] The release samples were taken continuously for 1 day. All samples were quantified for 3H concentration using a scintillation counter. Each experiment was conducted in triplicate.
The samples were taken continuously for the first 24 hours. The drug concentration was measured spectrophotometrically at 240 nm.

Compound	P (oil/water) ([1]; water: 0.2% PVA)	P (oil/water) ([1]; water: 2% PVA)	P (oil/water) ([1]; water: 2% PVA + 0.25N (NH4)2SO4)	P (oil/water) ([1]; water: 2% PVA + 0.5N NaCl)	release from free nanospheres ([2]; PBS, 37° C.)	release from nanospheres loaded hydrogels ([2]; PBS, 37° C.)	release from pure thermo-responsive hydrogels ([2]; after the first two hours)	drug release from PLGA nanospheres ([2]; within 24 hours, 37° C., PBS, disodium salt)	release from pure thermo-responsive hydrogels ([2]; within the first two hours)
[3H]C1=C([3H])[C@@]2(C)C(=C([3H])C1=O)CC[C@H]1[C@@H]3C[C@@H](C)[C@](O)(C(=O)CO)[C@@]3(C)C[C@H](O)[C@@]12F [[1,2,4-^3H]dexamethasone, [1,2,4-^3H]dexamethasone]	2.93								
C[C@@H]1C[C@H]2[C@@H]3CCC4=CC(=O)C=C[C@]4(C)[C@@]3(F)[C@@H](O)C[C@]2(C)[C@@]1(O)C(=O)COP(=O)(O)O [Dexamethasone sodium phosphate, Dexamethasone 21-phosphate disodium salt]	0.06	0.15	0.86	0.26	sustained release over 24 hours	sustained release over 24 hours	less than 10%	> 90% and ~90%	~90%

Source: patent US20140065226A1, “THERMO-RESPONSIVE HYDROGEL COMPOSITIONS” (priority 2011, published 2014)
